Measurements from patent US12617837B2, “Composition for use in treatment of allergic diseases” (UNIVERSITY OF TSUKUBA, priority 2019, dated 2026).

Columns and labels:
human IgG1 = assay: Glycan microarray probed with human IgG1 (control of Table 7); format: binding
Clec10a-Fc = biological target: T1, Clec10a-Fc (Mus musculus, UniProt P49300); assay: Sugar conjugate (glycan) microarray analysis of Clec10a-Fc (Table 7); format: binding; conditions: for Signal value, Clec10a-Fc: glycan microarray probed with Clec10a-Fc; for Signal value, Clec10a-Fc with EDTA: glycan microarray probed with Clec10a-Fc with EDTA
T1 construct: cloning the extracellular region of mouse Clec10a into a pME18S expression vector; made in house; host or cells: HEK293T cells
T1 sequence (P49300 57-304 limits assumed): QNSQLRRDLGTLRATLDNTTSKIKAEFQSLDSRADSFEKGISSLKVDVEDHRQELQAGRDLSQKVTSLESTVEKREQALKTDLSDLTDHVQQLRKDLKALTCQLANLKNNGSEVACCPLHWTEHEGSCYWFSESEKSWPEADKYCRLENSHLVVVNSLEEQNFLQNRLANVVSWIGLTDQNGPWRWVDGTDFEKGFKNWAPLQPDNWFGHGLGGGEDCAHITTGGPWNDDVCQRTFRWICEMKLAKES
Experimental: A sugar conjugate microarray containing 98 sugar conjugates (Table 3) was prepared according to a known method using a non-contact microarray printing robot (MicroSys 4000; Genomic Solutions).

Compound	Signal value, human IgG1 (human IgG1)	Signal value, Clec10a-Fc (Clec10a-Fc)	Signal value, Clec10a-Fc with EDTA (Clec10a-Fc)
CC(=O)N[C@@H]1[C@@H](O)[C@H](O[C@@H]2O[C@H](CO)[C@H](O)[C@H](O)[C@H]2O)[C@@H](CO)O[C@H]1O [LN]	0	7	0
CC(=O)N[C@@H]1[C@@H](O[C@@H]2O[C@H](CO)[C@H](O)[C@H](O)[C@H]2O[C@@H]2O[C@@H](C)[C@@H](O)[C@@H](O)[C@@H]2O)[C@H](O[C@@H]2O[C@@H](C)[C@@H](O)[C@@H](O)[C@@H]2O)[C@@H](CO)O[C@H]1O [Leb]	0	0	0
CC(=O)N[C@H]1[C@H]([C@H](O)[C@H](O)CO)O[C@@](O[C@H](CO)[C@@H](O)[C@@H]2O[C@@](O)(C(=O)O)C[C@H](O)[C@H]2NC(C)=O)(C(=O)O)C[C@@H]1O [Siα2]	0	0	0
CC(=O)N[C@@H]1[C@@H](O[C@@H]2O[C@H](CO)[C@H](O)[C@H](O)[C@H]2O[C@@H]2O[C@@H](C)[C@@H](O)[C@@H](O)[C@@H]2O)[C@H](O)[C@@H](CO)O[C@H]1O [H type1]	0	1	0
CC(=O)N[C@@H]1[C@@H](O)[C@@H](O)[C@@H](CO)O[C@H]1O [βGalNAc]	0	6	0
CC(=O)N[C@@H]1[C@@H](O[C@@H]2O[C@@H](C)[C@@H](O)[C@@H](O)[C@@H]2O)[C@H](O[C@@H]2O[C@H](CO)[C@H](O)[C@H](O[C@]3(C(=O)O)C[C@H](O)[C@@H](NC(C)=O)[C@H]([C@H](O)[C@H](O)CO)O3)[C@H]2O)[C@@H](CO)O[C@H]1O [sLex]	0	1	0
OC[C@H]1O[C@H](O[C@H]2[C@H](O)[C@@H](O)[C@H](O)O[C@@H]2CO)[C@H](O)[C@@H](O)[C@@H]1O [Maltose]	0	0	1
O=P(O)(O)OC[C@H]1O[C@H](O)[C@@H](O)[C@@H](O)[C@@H]1O [[6P]Man]	0	0	0
CC(=O)N[C@H]1[C@H](O[C@@H]2[C@H](O)[C@@H](O)[C@H](O[C@H]3[C@H](O)[C@@H](O)[C@H](O)O[C@@H]3CO)O[C@@H]2CO)O[C@H](CO)[C@H](O)[C@@H]1O [Gα2]	0	0	0
OC[C@H]1O[C@H](OCC2O[C@@H](O)[C@H](O)[C@@H](O)[C@@H]2O)[C@H](O)[C@@H](O)[C@H]1O (stereo partly drawn) [Melibiose]	0	45	0
CC(=O)N[C@@H]1[C@@H](O[C@H]2O[C@H](CO)[C@H](O)[C@H](O)[C@H]2O)[C@@H](O)[C@@H](CO)O[C@@H]1O [Core8]	0	0	0
CC(=O)N[C@@H]1[C@@H](O[C@@H]2O[C@H](CO)[C@H](O)[C@H](O)[C@H]2O)[C@@H](O)[C@@H](CO[C@]2(C(=O)O)C[C@H](O)[C@@H](NC(C)=O)[C@H]([C@H](O)[C@H](O)CO)O2)O[C@@H]1O [Siaα2-6Core 1]	0	0	0
CC(=O)N[C@@H]1[C@@H](O[C@@H]2O[C@H](CO)[C@@H](O)[C@H](O)[C@H]2NC(C)=O)[C@@H](O)[C@@H](CO[C@@H]2O[C@H](CO)[C@@H](O)[C@H](O)[C@H]2NC(C)=O)O[C@@H]1O [Core4]	0	0	0
CC(=O)N[C@@H]1[C@@H](O[C@@H]2O[C@H](CO)[C@H](O)[C@H](O)[C@H]2O)[C@@H](O)[C@@H](CO[C@@H]2O[C@H](CO)[C@@H](O)[C@H](O)[C@H]2NC(C)=O)O[C@@H]1O [Core2]	0	4824	0
OC[C@H]1O[C@H](O[C@H]2C(O)O[C@H](CO)[C@H](O)[C@@H]2O)[C@H](O)[C@@H](O)[C@H]1O (stereo partly drawn) [Galα1-2Gal]	0	3	0
OC[C@H]1O[C@@H](O)[C@@H](O)[C@@H](O)[C@@H]1O [βMan]	0	0	0
Chitobiose	0	0	0
CC(=O)N[C@@H]1[C@@H](O)[C@H](O[C@@H]2O[C@@H](C)[C@@H](O)[C@@H](O)[C@@H]2O)[C@@H](CO)O[C@H]1O [Fucα4GlcNAc]	0	0	0

Compound	Signal value, human IgG1 (human IgG1)	Signal value, Clec10a-Fc (Clec10a-Fc)	Signal value, Clec10a-Fc with EDTA (Clec10a-Fc)
CC(=O)N[C@@H]1[C@@H](O[C@H]2O[C@H](CO)[C@H](O)[C@H](O)[C@H]2NC(C)=O)[C@@H](O)[C@@H](CO)O[C@H]1O [Forssman disaccharide]	0	0	0
CC(=O)N[C@@H]1[C@@H](O[C@@H]2O[C@H](CO)[C@@H](O)[C@H](O)[C@H]2NC(C)=O)[C@@H](O)[C@@H](CO)O[C@@H]1O [Core3]	0	0	0
OC[C@H]1O[C@H](O)[C@@H](O)[C@@H](O)[C@@H]1O [αMan]	0	0	0
C[C@@H]1O[C@@H](O[C@@H]2[C@@H](O)[C@@H](O)[C@@H](CO)O[C@H]2O)[C@@H](O)[C@H](O)[C@@H]1O [Fucα2Gal]	0	0	0
OC[C@H]1O[C@@H](O[C@H]2[C@H](O)[C@@H](O)[C@H](O)O[C@@H]2CO)[C@H](O)[C@@H](O)[C@H]1O [Lac]	0	4850	0
CC(=O)N[C@H]1[C@H]([C@H](O)[C@H](O)CO)O[C@@](O)(C(=O)O)C[C@@H]1O [Ne̊u5Ac]	0	0	0
CC(=O)N[C@@H]1[C@@H](O)[C@H](O)[C@@H](CO)O[C@H]1O [BGlcNAc]	205	0	0
O=C(CO)N[C@H]1[C@H]([C@H](O)[C@H](O)CO)O[C@@](O)(C(=O)O)C[C@@H]1O [Ne̊u5Gc]	0	0	0
CC(=O)N[C@@H]1[C@@H](O)[C@H](O[C@@H]2O[C@H](CO)[C@H](O)[C@H](O[C@]3(C(=O)O)C[C@H](O)[C@@H](NC(C)=O)[C@H]([C@H](O)[C@H](O)CO)O3)[C@H]2O)[C@@H](CO)O[C@H]1O [3′SLN]	0	7	0
CC(=O)N[C@@H]1[C@@H](O[C@@H]2O[C@H](CO)[C@H](O)[C@H](O)[C@H]2O)[C@@H](O)[C@@H](CO)O[C@@H]1O [T (Core1)]	0	2504	0
OC[C@H]1O[C@@H](O)[C@H](O)[C@@H](O)[C@H]1O [βGal]	0	1867	0
CC(=O)N[C@@H]1[C@@H](O)[C@H](O)[C@@H](COS(=O)(=O)O)O[C@H]1O [[6S]BGlcNAc]	318	0	0
CC(=O)N[C@@H]1[C@@H](O)[C@H](O[C@@H]2O[C@H](CO)[C@H](O)[C@H](O[C@H]3O[C@H](CO)[C@H](O)[C@H](O)[C@H]3NC(C)=O)[C@H]2O[C@@H]2O[C@@H](C)[C@@H](O)[C@@H](O)[C@@H]2O)[C@@H](CO)O[C@H]1O [A]	0	0	0
CC(=O)N[C@H]1[C@@H](O[C@@H]2[C@@H](O)[C@H](O)O[C@H](CO)[C@@H]2O)O[C@H](CO)[C@H](O)[C@@H]1O [A-di]	0	1137	0
CC(=O)N[C@@H]1[C@@H](O)[C@H](O[C@@H]2O[C@H](COS(=O)(=O)O)[C@H](O)[C@H](O)[C@H]2O)[C@@H](CO)O[C@H]1O [[6′S]LN]	0	0	0
CC(=O)N[C@@H]1[C@@H](O[C@@H]2O[C@H](CO)[C@H](O)[C@H](O[C@]3(C(=O)O)C[C@H](O)[C@@H](NC(C)=O)[C@H]([C@H](O)[C@H](O)CO)O3)[C@H]2O)[C@H](O)[C@@H](CO)O[C@H]1O [3′SiaLec]	0	4	0
CC(=O)N[C@@H]1[C@@H](O[C@@H]2O[C@H](CO)[C@H](O)[C@H](OS(=O)(=O)O)[C@H]2O)[C@H](O)[C@@H](CO)O[C@H]1O [[3′S]Lec]	0	0	0
